Test results as given in patent US20240358693A1, “METHODS OF TREATING PAIN” (Aisa Pharma, Inc., priority 2023, published 2024).

System: participants with SSc-RP
Assay: Average duration of weekly RP attacks (minutes)
Assay type: in vivo, human
Text: The absolute change in average duration of weekly RP attacks from baseline to the end of each dosing period was and will be a secondary outcome variable. The sponsor-developed participant-informed diary was and will be used to record data. Average duration of weekly RP attacks is defined as the total duration of RP attacks divided by total number of RP attacks within the last 7 days of each dosing period. Total duration of RP attacks during the last 7 days of screening period divided by the total number of RP attacks will be used as baseline for the analysis of all periods. The variable will be calculated similar to frequency data as before.

[1] = Cilnidipine 20 mg, Excluding Outliers, ITT Population - Part A
[2] = Cilnidipine 20 mg, Excluding Outliers, by Baseline RCS, subgroup 1, ITT Population - Part A
[3] = Cilnidipine 20 mg, by Baseline RCS, subgroup 1, ITT Population - Part A
[4] = Pooled Cilnidipine 10 mg and Cilnidipine 10 mg + Tadalafil 5 mg, n=3, Excluding Outliers, ITT Part A
[5] = Pooled Cilnidipine 10 mg and Cilnidipine 10 mg + Tadalafil 5 mg, n=3, ITT Part A
[6] = Pooled Cilnidipine 10 mg and Cilnidipine 10 mg + Tadalafil 5 mg, Baseline RCS subgroup 1 (unnamed), ITT Part A
[7] = Pooled Cilnidipine 10 mg and Cilnidipine 10 mg + Tadalafil 5 mg, Baseline RCS subgroup 2 (unnamed), ITT Part A
[8] = Pooled Cilnidipine 10 mg and Cilnidipine 10 mg + Tadalafil 5 mg, Excluding Outliers, Baseline RCS subgroup 1 (unnamed), ITT Part A
[9] = Pooled Cilnidipine 10 mg and Cilnidipine 10 mg + Tadalafil 5 mg, Excluding Outliers, Baseline RCS subgroup 2 (unnamed), ITT Part A
[10] = Pooled Cilnidipine 10 mg and Cilnidipine 10 mg + Tadalafil 5 mg, Excluding Outliers, ITT Population - Part A
[11] = Pooled Cilnidipine 10 mg and Cilnidipine 10 mg + Tadalafil 5 mg, Excluding Outliers, by Baseline RCS, subgroup 1, ITT Population - Part A

`COCCOC(=O)C1=C(C)NC(C)=C(C(=O)OC/C=C/c2ccccc2)C1c1cccc([N+](=O)[O-])c1` (centres unmarked) [Cilnidipine, cilnidipine] was tested, and the “Average Duration of Weekly RP Attacks (All Attacks) Change from Baseline, Median” value [1] was -1.09 min, the “Average Duration of Weekly RP Attacks (All Attacks) Percent Change from Baseline, Mean” value [1] was −24.97% and the “Average Duration of Weekly RP Attacks (All Attacks) Percent Change from Baseline, Median” value [1] was −24.97%. The “Average Duration of Weekly RP Attacks (All Attacks), Mean” value (“Average Duration … (All Attacks), Mean” below) [1] was 16.73 min, the “Average Duration of Weekly RP Attacks (All Attacks), Median” value (“Average Duration … (All Attacks), Median” below) [1] was 16.73 min and the “Average Duration of Weekly RP Attacks (All Attacks) Change from Baseline, Mean” value [2] was -1.09 min. The “Average Duration of Weekly RP Attacks (All Attacks) Change from Baseline, Median” value [2] was -1.09 min, the “Average Duration of Weekly RP Attacks (All Attacks) Percent Change from Baseline, Mean” value [2] was −24.97% and the “Average Duration of Weekly RP Attacks (All Attacks) Percent Change from Baseline, Median” value [2] was −24.97%. The “Average Duration … (All Attacks), Mean” value [2] was 16.73 min, the “Average Duration … (All Attacks), Median” value [2] was 16.73 min and the “Average Duration of Weekly RP Attacks (All Attacks) Change from Baseline, Mean” value (Cilnidipine 20 mg, ITT Part A) was -1.09 min. For the same compound, the “Average Duration of Weekly RP Attacks (All Attacks) Change from Baseline, Median” value (Cilnidipine 20 mg, ITT Part A) was -1.09 min, the “Average Duration of Weekly RP Attacks (All Attacks) Percent Change from Baseline, Mean” value (Cilnidipine 20 mg, ITT Part A) was −24.97% and the “Average Duration of Weekly RP Attacks (All Attacks) Percent Change from Baseline, Median” value (Cilnidipine 20 mg, ITT Part A) was −24.97%. The “Average Duration … (All Attacks), Mean” value (Cilnidipine 20 mg, ITT Part A) was 16.73 min, the “Average Duration … (All Attacks), Median” value (Cilnidipine 20 mg, ITT Part A) was 16.73 min and the “Average Duration of Weekly RP Attacks (All Attacks) Change from Baseline, Mean” value [3] was -1.09 min. The “Average Duration of Weekly RP Attacks (All Attacks) Change from Baseline, Median” value [3] was -1.09 min, the “Average Duration of Weekly RP Attacks (All Attacks) Percent Change from Baseline, Mean” value [3] was −24.97% and the “Average Duration of Weekly RP Attacks (All Attacks) Percent Change from Baseline, Median” value [3] was −24.97%. The “Average Duration … (All Attacks), Mean” value [3] was 16.73 min, the “Average Duration … (All Attacks), Median” value [3] was 16.73 min and the Duration (Cilnidipine (20 mg) (n = 3)) was −20%. For the same compound, the “Mean % reduction in duration” value (Cilnidipine (20 mg) (n = 3)) was 20.0%, the “Mean duration of attack at baseline” value (Cilnidipine (20 mg) (n = 3)) was 19.4 and the “Average Duration of Weekly Symptomatic RP Attacks, Change from Baseline, Mean” value [4] was -12.11 min. For the same compound, the “Average Duration of Weekly Symptomatic RP Attacks, Change from Baseline, Median” value [4] was -16.74 min, the “Average Duration of Weekly Symptomatic RP Attacks, Mean” value [4] was 29.46 min and the “Average Duration of Weekly Symptomatic RP Attacks, Median” value [4] was 31.64 min. The “Average Duration of Weekly Symptomatic RP Attacks, Percent Change from Baseline, Mean” value [4] was −22.40%, the “Average Duration of Weekly Symptomatic RP Attacks, Percent Change from Baseline, Median” value [4] was −33.84% and the “Average Duration of Weekly Symptomatic RP Attacks, Change from Baseline, Mean” value [5] was -12.11 min. The “Average Duration of Weekly Symptomatic RP Attacks, Change from Baseline, Median” value [5] was -16.74 min, the “Average Duration of Weekly Symptomatic RP Attacks, Mean” value [5] was 29.46 min and the “Average Duration of Weekly Symptomatic RP Attacks, Median” value [5] was 31.64 min. For the same compound, the “Average Duration of Weekly Symptomatic RP Attacks, Percent Change from Baseline, Mean” value [5] was −22.40%, the “Average Duration of Weekly Symptomatic RP Attacks, Percent Change from Baseline, Median” value [5] was −33.84% and the “Average Duration of Weekly Symptomatic RP Attacks, Change from Baseline, Mean” value [6] was -8.26 min. The “Average Duration of Weekly Symptomatic RP Attacks, Change from Baseline, Median” value [6] was -8.26 min, the “Average Duration of Weekly Symptomatic RP Attacks, Mean” value [6] was 24.82 min and the “Average Duration of Weekly Symptomatic RP Attacks, Median” value [6] was 24.82 min. For the same compound, the “Average Duration of Weekly Symptomatic RP Attacks, Percent Change from Baseline, Mean” value [6] was −16.67%, the “Average Duration of Weekly Symptomatic RP Attacks, Percent Change from Baseline, Median” value [6] was −16.67% and the “Average Duration of Weekly Symptomatic RP Attacks, Change from Baseline, Mean” value [7] was -19.82 min. The “Average Duration of Weekly Symptomatic RP Attacks, Change from Baseline, Median” value [7] was -19.82 min, the “Average Duration of Weekly Symptomatic RP Attacks, Mean” value [7] was 38.75 min and the “Average Duration of Weekly Symptomatic RP Attacks, Median” value [7] was 38.75 min. For the same compound, the “Average Duration of Weekly Symptomatic RP Attacks, Percent Change from Baseline, Mean” value [7] was −33.84%, the “Average Duration of Weekly Symptomatic RP Attacks, Percent Change from Baseline, Median” value [7] was −33.84% and the “Average Duration of Weekly Symptomatic RP Attacks, Change from Baseline, Mean” value [8] was -8.26 min. For the same compound, the “Average Duration of Weekly Symptomatic RP Attacks, Change from Baseline, Median” value [8] was -8.26 min, the “Average Duration of Weekly Symptomatic RP Attacks, Mean” value [8] was 24.82 min and the “Average Duration of Weekly Symptomatic RP Attacks, Median” value [8] was 24.82 min. For the same compound, the “Average Duration of Weekly Symptomatic RP Attacks, Percent Change from Baseline, Mean” value [8] was −16.67%, the “Average Duration of Weekly Symptomatic RP Attacks, Percent Change from Baseline, Median” value [8] was −16.67% and the “Average Duration of Weekly Symptomatic RP Attacks, Change from Baseline, Mean” value [9] was -19.82 min. The “Average Duration of Weekly Symptomatic RP Attacks, Change from Baseline, Median” value [9] was -19.82 min, the “Average Duration of Weekly Symptomatic RP Attacks, Mean” value [9] was 38.75 min and the “Average Duration of Weekly Symptomatic RP Attacks, Median” value [9] was 38.75 min. The “Average Duration of Weekly Symptomatic RP Attacks, Percent Change from Baseline, Mean” value [9] was −33.84%, the “Average Duration of Weekly Symptomatic RP Attacks, Percent Change from Baseline, Median” value [9] was −33.84% and the “Average Duration of Weekly RP Attacks (All Attacks) Change from Baseline, Mean” value [10] was -9.54 min. For the same compound, the “Average Duration of Weekly RP Attacks (All Attacks) Change from Baseline, Median” value [10] was -8.48 min, the “Average Duration of Weekly RP Attacks (All Attacks) Percent Change from Baseline, Mean” value [10] was −19.10% and the “Average Duration of Weekly RP Attacks (All Attacks) Percent Change from Baseline, Median” value [10] was −21.20%. For the same compound, the “Average Duration … (All Attacks), Mean” value [10] was 27.90 min, the “Average Duration … (All Attacks), Median” value [10] was 31.52 min and the “Average Duration of Weekly RP Attacks (All Attacks) Change from Baseline, Mean” value [11] was -4.13 min. For the same compound, the “Average Duration of Weekly RP Attacks (All Attacks) Change from Baseline, Median” value [11] was -4.13 min, the “Average Duration of Weekly RP Attacks (All Attacks) Percent Change from Baseline, Mean” value [11] was −9.97% and the “Average Duration of Weekly RP Attacks (All Attacks) Percent Change from Baseline, Median” value [11] was −9.97%. The “Average Duration … (All Attacks), Mean” value [11] was 24.76 min and the “Average Duration … (All Attacks), Median” value [11] was 24.76 min.
